Laboratory results taken from PMC8151276, “An Integrated Approach toward NanoBRET Tracers for Analysis of GPCR Ligand Engagement” (Molecules, 2021).

Biological target: T1, CHRM2 (Homo sapiens, UniProt P08172)
T1 construct: purchased Promega (in-house HiBiT-GPCR construct library, NanoBRET)
T1 sequence (P08172 1-466): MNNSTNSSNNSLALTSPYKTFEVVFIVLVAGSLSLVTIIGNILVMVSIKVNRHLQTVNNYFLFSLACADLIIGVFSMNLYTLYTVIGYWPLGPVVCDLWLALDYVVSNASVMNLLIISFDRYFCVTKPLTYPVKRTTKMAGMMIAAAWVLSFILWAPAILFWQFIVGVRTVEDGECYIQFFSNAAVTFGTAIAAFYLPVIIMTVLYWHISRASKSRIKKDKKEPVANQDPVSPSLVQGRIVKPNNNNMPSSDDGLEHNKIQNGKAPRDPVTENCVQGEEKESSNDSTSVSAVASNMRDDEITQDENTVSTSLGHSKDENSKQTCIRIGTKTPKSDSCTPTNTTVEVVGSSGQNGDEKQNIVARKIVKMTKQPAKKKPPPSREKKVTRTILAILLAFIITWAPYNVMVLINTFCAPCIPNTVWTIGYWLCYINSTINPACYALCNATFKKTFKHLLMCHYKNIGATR
Test: NanoBRET screen HiBiT-CHRM2 in HEK293
Type: binding
Protocol: Each tracer candidate was screened across the entire library of HiBiT-GPCR constructs using NanoBRET as the detection modality. As depicted in Figure 4A, the specificity of interactions was evaluated through decrease in BRET due to competitive displacement of a bound tracer by excess parental compound. Each tracer was analyzed for binding to each HiBiT-GPCR fusion in the absence and in the presence of competing parental compound. Briefly, HEK293 cells were transfected with HiBiT-GPCR constructs diluted into promoterless DNA to reduce expression and maximize translocation to the cell surface. Each tracer candidate was then screened at concentrations of 1 μM and 0.1 μM across cells expressing these fusions. Cells were treated for 1.5 h with tracer either alone or in the presence of 20 μM competing parental compound (i.e., control). BRET was measured upon addition of purified LgBiT and subsequent complementation with HiBiT genetically fused to a GPCR. The specificity of interactions was assessed through a decrease in BRET signal due to competitive displacement of the bound tracer. To further gauge the robustness of these interactions, the fold response over the control (i.e., BRETtracer/BRETcontrol) was calculated. We chose a 1.5-fold response, which translates to ≥7-fold signal over noise as the minimal threshold required to score an interaction as positive.
HiBiT-GPCR DNA constructs were diluted in 10 mM Tris pH 8 to a final concentration of 0.01 μg/μL, arrayed in 96-well plates and stored at −20 °C. For transfection, HEK293 cells were suspended in Opti-MEM (without phenol red) supplemented with 2% fetal bovine serum (Seradigm) and 100 units/mL penicillin–streptomycin (Gibco) at a final concentration of 220,000 cells/mL and dispensed into white 96-well plates at 90 μL/well. Subsequent transfections and screens were carried using an Agilent Bravo Automated Liquid Handling Platform. First, the 96-well HiBiT DNA arrays were diluted 25-fold in Opti-MEM (without serum or phenol red) to a final concentration of 0.0004 μg/μL and 20 μL of the diluted DNAs were transferred into new 96-well plates. Next, promoterless carrier DNA (1 μg/μL) was diluted 25-fold (0.04 μg/μL) and then dispensed into the diluted arrays at 20 μL/well. Following brief mixing, Viafect transfection reagent (Promega) diluted 16-fold into Opti-MEM was dispensed into the plates at 40 μL/well. After mixing by pipetting, plates were incubated for 10 min on the pipetting station deck. The DNA-transfection reagent complexes were then added to plates containing cells. To facilitate the screen, 10 μL of DNA-transfection reagent complexes were added in duplicates to the top 4 and bottom 4 rows, resulting in two identical 48-well arrays per plate. Plates with transfected cells were incubated for 18–20 h at 37 °C/5% CO2. A screen of each tracer across the entire library using two different concentrations requires duplicate plates of transfected cells. Depending on the number of tracers being screened, transfections can be scaled up using the same ratios. The next day, for each tracer, four 20× screening solutions in tracer dilution buffer (Promega) were prepared: two duplicates at final concentration of 20 μM and two duplicates at a final concentration of 2 μM. […] The four resulting solutions were diluted 4-fold in Opti-MEM without serum or phenol red to generate 5× solutions (5 µM and 0.5 µM tracer +/− 100 μM competing compound). To screen the library, a BioTek MultiFlo FX liquid dispenser was used to dispense 22.5 µL of tracer solution to the top 4 rows and 22.5 µL tracer + competing compound solution to the 4 bottom rows. Plates were briefly mixed on an orbital shaker and incubated for 1.5 h at room temperature. […] Plates were briefly mixed on an orbital shaker and incubated for 15 min to allow complementation.

SMILES	NanoBRET Fold Response (CHRM2, tracer 0.1μM)	NanoBRET Fold Response (CHRM2, tracer 1μM)	other results
CCOC(=O)c1cc(C#N)c(N2CCC(C(=O)NS(=O)(=O)Cc3ccccc3/C=C/C(=O)NCCNC(=O)CCc3ccc4n3[B-](F)(F)[N+]3=C(c5ccc[nH]5)C=CC3=C4)CC2)nc1C [AZD1283-1-NB590]			NanoBRET Fold Response (CHRM2, 0.1μM): 1.05; NanoBRET Fold Response (CHRM2, 1μM): 0.96
N#CN=C(NCCCOc1cccc(CN2CCCCC2)c1)NCCNC(=O)CCOCCOCCOCCOCCNC(=O)CCc1ccc2n1[B-](F)(F)[N+]1=C(c3ccc[nH]3)C=CC1=C2 [Aminopotentidine-2-NB590]	1.66	1.68	
CN(C)CCC=C1c2ccccc2CCc2ccc(C(=O)NCCNC(=O)CCOCCOCCOCCOCCNC(=O)CCc3ccc4n3[B-](F)(F)[N+]3=C(c5ccc[nH]5)C=CC3=C4)cc21 [Amitriptyline-a-2-NB590]			NanoBRET Fold Response (tracer at 0.1μM): 1.10; NanoBRET Fold Response (tracer at 1μM): 0.98
CN(C)CCC=C1c2ccccc2CCc2ccc(C(=O)NCCNC(=O)CCOCCOCCOCCOCCNC(=O)CCc3ccc4n3[B-](F)(F)[N+]3=C(c5ccc[nH]5)C=CC3=C4)cc21 [Amitriptyline-b-2-NB590]			NanoBRET Fold Response (tracer at 0.1μM, listed as amitriptyline-b-2-NB590): 2.20; NanoBRET Fold Response (tracer at 1μM, listed as amitriptyline-b-2-NB590): 1.55
CN(CCC=C1c2ccccc2CCc2ccccc21)C(=O)CCOCCOCCOCCOCCNC(=O)CCc1ccc2n1[B-](F)(F)[N+]1=C(c3ccc[nH]3)C=CC1=C2 [Amitriptyline-e-2-NB590]			NanoBRET Fold Response (tracer at 1μM): 1.05
COc1ccc2c(n1)c(CCNC(C)=O)cn2CCNC(=O)CCc1ccc2n1[B-](F)(F)[N+]1=C(c3ccc[nH]3)C=CC1=C2 [Azamelatonin-1-NB590]			NanoBRET Fold Response (0.1μM tracer): 0.80; NanoBRET Fold Response (1μM tracer): 1.35
COc1ccc2[nH]c(-c3ccc(CNC(=O)CCOCCOCCOCCOCCNC(=O)CCc4ccc5n4[B-](F)(F)[N+]4=C(c6ccc[nH]6)C=CC4=C5)cc3)c(CCNC(C)=O)c2n1 [AzomelatoninICO9-2-NB590]			NanoBRET Fold Response (0.1μM tracer): 1.08; NanoBRET Fold Response (1μM tracer): 0.86
O=C(CCOCCOCCOCCOCCNC(=O)CCc1ccc2n1[B-](F)(F)[N+]1=C(c3ccc[nH]3)C=CC1=C2)NCCCN1CCN(C2=Nc3cc(Cl)ccc3Nc3ccccc32)CC1 [Clozapine-a-2-NB590]			NanoBRET Fold Response (CHRM2, 0.1μM tracer): 1.50; NanoBRET Fold Response (CHRM2, 1μM tracer): 1.49
CN1CCN(C2=Nc3cc(Cl)ccc3Nc3ccc(CNC(=O)CCOCCOCCOCCOCCNC(=O)CCc4ccc5n4[B-](F)(F)[N+]4=C(c6ccc[nH]6)C=CC4=C5)cc32)CC1 [Clozapine-b-2-NB590]			NanoBRET Fold Response (CHRM2, 0.1μM tracer): 1.48; NanoBRET Fold Response (CHRM2, 1μM tracer): 1.99
CN1CCN(C2=Nc3cc(Cl)ccc3N(CC(=O)NCCOCCOCCOCCOCCNC(=O)CCc3ccc4n3[B-](F)(F)[N+]3=C(c5ccc[nH]5)C=CC3=C4)c3ccccc32)CC1 [Clozapine-c-2-NB590]			NanoBRET Fold Response (CHRM2, 0.1μM tracer): 0.99; NanoBRET Fold Response (CHRM2, 1μM tracer): 0.87
O=C(CCOCCOCCOCCOCCNC(=O)CCc1ccc2n1[B-](F)(F)[N+]1=C(c3ccc[nH]3)C=CC1=C2)NCCCN1CCN(C2=Nc3ccccc3Oc3ccc(Cl)cc32)CC1 [Loxapine-a-2-NB590]	1.07	1.04	
COc1ccccc1N1CCN(CCCCN2C(=O)c3ccc(CNC(=O)CCOCCOCCOCCOCCNC(=O)CCc4ccc5n4[B-](F)(F)[N+]4=C(c6ccc[nH]6)C=CC4=C5)cc3C2=O)CC1 [NAN-190-2-NB590]	1.13		
COc1ccccc1N1CCN(CCCCN2C(=O)c3ccc(CNC(=O)CCOCCNC(=O)c4ccc(CNC(=O)CCc5ccc6n5[B-](F)(F)[N+]5=C(c7ccc[nH]7)C=CC5=C6)cc4)cc3C2=O)CC1 [NAN-190-3-NB590]	1.14	0.95	
O=C(CCc1ccc2n1[B-](F)(F)[N+]1=C(c3ccc[nH]3)C=CC1=C2)NCc1ccc(C(=O)NCCOCCC(=O)N[C@@H]2CC[C@@]3(O)[C@H]4Cc5ccc(O)c6c5[C@@]3(CCN4CC3CC3)[C@H]2O6)cc1 [Naltrexone-3-NB590]	0.57	1.32	
Cc1cc2c(s1)Nc1ccccc1N=C2N1CCN(CCCNC(=O)CCOCCOCCOCCOCCNC(=O)CCc2ccc3n2[B-](F)(F)[N+]2=C(c4ccc[nH]4)C=CC2=C3)CC1 [Olanzapine-a-2-NB590]		1.30	
O=C(CCc1ccc2n1[B-](F)(F)[N+]1=C(c3ccc[nH]3)C=CC1=C2)NCc1ccc(C(=O)NCCOCCOCCNCC(O)COc2cccc3ccccc23)cc1 (stereo not drawn) [Propranolol-3-NB590]			NanoBRET Fold Response (CHRM2, 0.1μM): 1.14; NanoBRET Fold Response (CHRM2, 1μM): 1.00
O=C(CCc1ccc2n1[B-](F)(F)[N+]1=C(c3ccc[nH]3)C=CC1=C2)NCCOCCOCCNC(=O)OCCOCCN1CCN(C2=Nc3ccccc3Sc3ccccc32)CC1 [Quetiapine-a-2-NB590]	1.56	1.75	
Cc1nc2n(c(=O)c1CCN1CCC(c3noc4cc(F)ccc34)CC1)CCCC2OC(=O)NCCOCCOCCOCCOCCNC(=O)CCc1ccc2n1[B-](F)(F)[N+]1=C(c3ccc[nH]3)C=CC1=C2 (stereo not drawn) [Risperidone-2-NB590]	1.09	1.26	
CC(C)N(CC[C@H](c1ccccc1)c1cc(CCNC(=O)CCOCCOCCOCCOCCNC(=O)CCc2ccc3n2[B-](F)(F)[N+]2=C(c4ccc[nH]4)C=CC2=C3)ccc1O)C(C)C [Tolterodine-2-NB590]	2.98	1.51	
CC(C)N(CC[C@H](c1ccccc1)c1cc(CCNC(=O)c2ccc(CNC(=O)CCc3ccc4n3[B-](F)(F)[N+]3=C(c5ccc[nH]5)C=CC3=C4)cc2)ccc1O)C(C)C [Tolterodine-BZ-NB590]	3.84	2.14	
CCCn1c(=O)c2[nH]c(-c3ccc(OCC(=O)NCCNC(=O)CCOCCNC(=O)c4ccc(CNC(=O)CCc5ccc6n5[B-](F)(F)[N+]5=C(c7ccc[nH]7)C=CC5=C6)cc4)cc3)nc2n(CCC)c1=O [XAC-3-NB590]	1.28	2.12	
